Results from patent EP2787003A1, “Antimicrobial peptide produced by marine sponge-derived Bacillus subtilis” (priority 2013, dated 2014).

Legend:
Assay in all cases: Spot on lawn assay
B. megaterium = type: cell-based, Bacillus megaterium ATCC 19213 (BGSC 7A2); parameters: key: +, clear halo of growth inhibition; ++: multiple +, increased activity as assessed visually by the increased diameter of the inhibition zone; +++: multiple +, increased activity as assessed visually by the increased diameter of the inhibition zone; ++++: multiple +, increased activity as assessed visually by the increased diameter of the inhibition zone; +++++: multiple +, increased activity as assessed visually by the increased diameter of the inhibition zone; -, no inhibition; conditions: indicator B. megaterium
Description: (§1) Antimicrobial activity of isolate MMA7 against the indicator strains was initially assessed with a deferred antagonism assay as described by Phelan et al. (2012). Subsequent testing of supernatants, crude extracts and purified compounds was carried out with a well and/or a spot on lawn assays. Essentially, 5 µl of samples were spotted onto 20 ml agar plates seeded with the indicator strain to a final OD600 of 0.015, or 30 µl aliquots were applied to a 5 mm well made on identical plates.

VRE = type: cell-based, VRE EC725; parameters: key: +, clear halo of growth inhibition; ++: multiple +, increased activity as assessed visually by the increased diameter of the inhibition zone; +++: multiple +, increased activity as assessed visually by the increased diameter of the inhibition zone; ++++: multiple +, increased activity as assessed visually by the increased diameter of the inhibition zone; +++++: multiple +, increased activity as assessed visually by the increased diameter of the inhibition zone; -, no inhibition; conditions: indicator VRE
L. lactis HP = type: cell-based, Lactococcus lactis HP; parameters: key: +, clear halo of growth inhibition; ++: multiple +, increased activity as assessed visually by the increased diameter of the inhibition zone; +++: multiple +, increased activity as assessed visually by the increased diameter of the inhibition zone; ++++: multiple +, increased activity as assessed visually by the increased diameter of the inhibition zone; +++++: multiple +, increased activity as assessed visually by the increased diameter of the inhibition zone; -, no inhibition; conditions: indicator L. lactis HP
Description: as §1

A. hydrophila = type: cell-based, Aeromonas hydrophila LMG 2844; parameters: key to Antimicrobial activity, spot on lawn assay: +, clear halo of growth inhibition; ++: multiple +, increased activity as assessed visually by the increased diameter of the inhibition zone; +++: multiple +, increased activity as assessed visually by the increased diameter of the inhibition zone; ++++: multiple +, increased activity as assessed visually by the increased diameter of the inhibition zone; +++++: multiple +, increased activity as assessed visually by the increased diameter of the inhibition zone; -, no inhibition
Description: as §1

C. albicans = type: cell-based, Candida albicans SC5314; parameters: key: +, clear halo of growth inhibition; ++: multiple +, increased activity as assessed visually by the increased diameter of the inhibition zone; +++: multiple +, increased activity as assessed visually by the increased diameter of the inhibition zone; ++++: multiple +, increased activity as assessed visually by the increased diameter of the inhibition zone; +++++: multiple +, increased activity as assessed visually by the increased diameter of the inhibition zone; -, no inhibition; conditions: indicator C. albicans
Description: as §1

C=C1NC(=O)[C@@H]2CSC[C@@H](NC(=O)[C@@H]3CS[C@@H](C)[C@H]4NC(=O)[C@H](Cc5ccccc5)NC(=O)[C@H](NC(=O)[C@H](CCCNC(=N)N)NC(=O)[C@@H]5CSC[C@@H](NC(=O)[C@H](CCC(N)=O)NC(=O)[C@@H](NC(=O)[C@@H](NC(=O)/C(=C/C)NC(=O)[C@H](CCCCN)NC(=O)CNC(=O)[C@@H](NC(=O)/C(=C/C)NC(=O)[C@H](C)NC(=O)[C@H](Cc6c[nH]c7ccccc67)NC(=O)C(=O)CC)[C@@H](C)CC)[C@@H](C)CC)C(C)C)C(=O)N[C@@H](C(C)C)C(=O)N[C@@H](CCCCN)C(=O)N[C@@H](CCCCN)C(=O)N5)[C@H](C)SC[C@H](NC4=O)C(=O)NCC(=O)N3)C(=O)N[C@@H](CC(C)C)C(=O)NCC(=O)N[C@H](CSC[C@@H](C(=O)N[C@@H](CC(N)=O)C(=O)O)NC(=O)[C@H](CC(N)=O)NC1=O)C(=O)N2 [Subtilomycin]
Antimicrobial activity, spot on lawn assay (B. megaterium): ++
Antimicrobial activity, spot on lawn assay (VRE): -
Antimicrobial activity, spot on lawn assay (L. lactis HP): +
Amount of peptide needed for detectable activity relative to that required to inhibit the Gram-positive indicators (A. hydrophila; A. hydrophila): four to five fold more peptide
Antimicrobial activity, spot on lawn assay (A. hydrophila; indicator A. hydrophila, *activity only detected with 4 to 5 times more peptide than that used for the other indicators): +*
Antimicrobial activity, spot on lawn assay (C. albicans): -
